Source: publication PMC3541179, “Structural Insights into the Dual Strategy of Recognition by Peptidoglycan Recognition Protein, PGRP-S: Structure of the Ternary Complex of PGRP-S with Lipopolysaccharide and Stearic Acid” (PLoS ONE, 2013)

Biological target: T1, CPGRP-S (camel short peptidoglycan recognition protein, PGRP-S) (Camelus dromedarius, UniProt Q9GK12)
T1 construct: gene PGLYRP1; native, purified from camel milk; full mature chain, residues 1-171, about 19-20 kDa; A-B and C-D contacts forming a linear polymer, 4 molecules in the asymmetric unit
Assay: X-ray crystallography (soaked crystals, […] A); SPR on immobilized protein also shows binding
Conditions: ternary complex with LPS at Site-1 (C-D contact); SA at Site-2 (A-B contact); crystals soaked in 70% reservoir solution and 30% ethanol
Excerpt: (camel short peptidoglycan recognition protein, PGRP-S) | SA is placed in the cleft at the A-B contact

T1 sequence (Q9GK12 23-193): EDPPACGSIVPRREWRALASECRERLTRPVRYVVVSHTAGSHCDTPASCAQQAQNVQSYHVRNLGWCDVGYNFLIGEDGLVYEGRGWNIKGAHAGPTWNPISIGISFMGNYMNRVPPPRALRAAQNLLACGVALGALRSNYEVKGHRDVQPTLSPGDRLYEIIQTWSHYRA

CCCCCCCCCCCCCCCCCC(=O)O [SA, stearic acid]
X-ray crystallography (soaked crystals, 2.8 A); SPR on immobilized protein also: SA is placed in the cleft at the A–B contact
